Measured values taken from ChEMBL document CHEMBL1136570, “Synthesis and dopamine transporter affinity of chiral 1-[2-[bis(4-fluorophenyl)methoxy]ethyl]-4-(2-hydroxypropyl)piperazines as potential cocaine abuse therapeutic agents” (Bioorg Med Chem Lett, 2003).

Key:
[1] = molecular target: Monoamine transporters; serotonin & dopamine (Rattus norvegicus) (UniProt P31652+P23977); assay: Selectivity expressed as ratio of affinity for SERT/DAT; assay type: protein assay
[2] = molecular target: Sodium-dependent dopamine transporter (Rattus norvegicus, UniProt P23977); assay: Binding affinity for dopamine transporter (DAT)
[3] = molecular target: Sodium-dependent serotonin transporter (Rattus norvegicus, UniProt P31652); assay: Binding affinity for serotonin transporter (SERT)
Sequence of Sodium-dependent serotonin transporter (P31652 whole entry): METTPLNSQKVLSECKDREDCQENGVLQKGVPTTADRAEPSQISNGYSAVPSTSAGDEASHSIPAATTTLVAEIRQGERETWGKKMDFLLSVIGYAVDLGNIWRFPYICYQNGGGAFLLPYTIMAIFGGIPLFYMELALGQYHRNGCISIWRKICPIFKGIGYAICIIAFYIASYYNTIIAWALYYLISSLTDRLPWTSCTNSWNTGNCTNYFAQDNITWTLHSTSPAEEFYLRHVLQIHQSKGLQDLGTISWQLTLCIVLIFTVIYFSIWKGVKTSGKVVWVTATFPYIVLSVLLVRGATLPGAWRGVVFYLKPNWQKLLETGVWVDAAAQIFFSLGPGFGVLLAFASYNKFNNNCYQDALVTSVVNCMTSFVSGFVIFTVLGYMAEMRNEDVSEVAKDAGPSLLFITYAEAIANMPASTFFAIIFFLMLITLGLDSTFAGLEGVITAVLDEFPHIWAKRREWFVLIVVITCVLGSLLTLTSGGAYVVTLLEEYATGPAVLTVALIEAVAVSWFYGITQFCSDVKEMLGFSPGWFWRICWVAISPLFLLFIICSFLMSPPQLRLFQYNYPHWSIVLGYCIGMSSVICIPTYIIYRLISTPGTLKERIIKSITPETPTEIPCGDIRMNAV

Sequence of Monoamine transporters; serotonin & dopamine (Rattus norvegicus) (P23977 whole entry, looked up): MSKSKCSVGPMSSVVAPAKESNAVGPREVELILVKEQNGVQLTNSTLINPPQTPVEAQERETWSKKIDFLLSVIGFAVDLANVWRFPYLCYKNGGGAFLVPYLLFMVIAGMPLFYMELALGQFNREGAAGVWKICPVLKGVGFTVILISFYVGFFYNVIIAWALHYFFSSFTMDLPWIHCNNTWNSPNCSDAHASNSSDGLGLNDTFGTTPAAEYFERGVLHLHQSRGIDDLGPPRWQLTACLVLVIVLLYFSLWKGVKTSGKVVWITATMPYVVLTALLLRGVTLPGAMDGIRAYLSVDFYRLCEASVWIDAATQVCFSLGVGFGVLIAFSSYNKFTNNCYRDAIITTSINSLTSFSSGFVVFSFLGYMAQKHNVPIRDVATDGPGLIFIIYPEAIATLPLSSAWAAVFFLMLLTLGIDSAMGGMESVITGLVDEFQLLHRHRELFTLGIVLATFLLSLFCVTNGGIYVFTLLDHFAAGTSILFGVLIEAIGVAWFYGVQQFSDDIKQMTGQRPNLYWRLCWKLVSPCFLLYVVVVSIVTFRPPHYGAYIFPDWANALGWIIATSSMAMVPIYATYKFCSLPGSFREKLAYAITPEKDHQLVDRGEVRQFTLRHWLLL
Sequence of Monoamine transporters; serotonin & dopamine (Rattus norvegicus) (P31652 whole entry, looked up): as the sequence (P31652 whole entry) above
Sequence of Sodium-dependent dopamine transporter (P23977 whole entry): as the sequence (P23977 whole entry, looked up) above

Structure (SMILES) | Ratio [1] | Ki [2] [nM] | Ki [3] [nM]
O[C@@H](Cc1ccccc1)CN1CCN(CCOC(c2ccccc2)c2ccccc2)CC1 | 939 | – | –
C[C@](O)(CN1CCN(CCOC(c2ccc(F)cc2)c2ccc(F)cc2)CC1)c1ccccc1 | 4 | 140 | 520
C[C@@H](O)[C@H](c1ccccc1)N1CCN(CCOC(c2ccc(F)cc2)c2ccc(F)cc2)CC1 | 43 | 13 | 565
C[C@H](O)[C@@H](c1ccccc1)N1CCN(CCOC(c2ccc(F)cc2)c2ccc(F)cc2)CC1 | 16 | 36 | 583
C[C@H](O)CN1CCN(CCOC(c2ccc(F)cc2)c2ccc(F)cc2)CC1 | 43 | 23 | 981
C[C@@H](O)CN1CCN(CCOC(c2ccc(F)cc2)c2ccc(F)cc2)CC1 | 8 | 76 | 588
OC(Cc1ccccc1)CN1CCN(CCOC(c2ccc(F)cc2)c2ccc(F)cc2)CC1 (racemic) | 54 | – | –
O[C@H](Cc1ccccc1)CN1CCN(CCOC(c2ccc(F)cc2)c2ccc(F)cc2)CC1 | 14 | – | –
CC(O)(CN1CCN(CCOC(c2ccc(F)cc2)c2ccc(F)cc2)CC1)c1ccccc1 (racemic) | 15 | 20 | 298
C[C@@](O)(CN1CCN(CCOC(c2ccc(F)cc2)c2ccc(F)cc2)CC1)c1ccccc1 | 50 | 5.6 | 281
C[C@@H](O)CN1CCN(CCOC(c2ccccc2)c2ccccc2)CC1 | 293 | 44 | 12900
O[C@@H](Cc1ccccc1)CN1CCN(CCOC(c2ccc(F)cc2)c2ccc(F)cc2)CC1 | 307 | – | –
CCCN1CCN(CCOC(c2ccc(F)cc2)c2ccc(F)cc2)CC1 | 22 | 40 | 888
CCN1CCN(CCOC(c2ccc(F)cc2)c2ccc(F)cc2)CC1 | 61 | 34 | 2090
C=CCN1CCN(CCOC(c2ccc(F)cc2)c2ccc(F)cc2)CC1 | 25 | 65 | 1650
C[C@H](O)CN1CCN(CCOC(c2ccccc2)c2ccccc2)CC1 | 217 | 48 | 10400
O[C@H](Cc1ccccc1)CN1CCN(CCOC(c2ccccc2)c2ccccc2)CC1 | 73 | – | –
